Converted amounts (≈) assume the structure as drawn.

The subject of assay [1] is Pseudomonas aeruginosa. Kind of assay: Antibacterial activity against Pseudomonas aeruginosa PAO1 assessed as inhibition of bacterial growth incubated for 16 hrs. The format is functional.
Assay [2] deals with Staphylococcus aureus. The assay can be described thus: Antibacterial activity against methicillin-resistant Staphylococcus aureus ATCC 33592 assessed as inhibition of bacterial growth incubated for 16 hrs. It is filed as functional.
Assay [3] deals with Staphylococcus aureus. Kind of assay: Antibacterial activity against methicillin-susceptible Staphylococcus aureus ATCC 6538 assessed as inhibition of bacterial growth incubated for 16 hrs. The format is functional.
For assay [4], the system named is Escherichia coli. The assay can be described thus: Antibacterial activity against Escherichia coli ATCC 25922 assessed as inhibition of bacterial growth incubated for 16 hrs. The format is functional.
The test system of assay [5] is Staphylococcus aureus. Kind of assay: Antibiofilm activity against methicillin-susceptible Staphylococcus aureus ATCC 6538 assessed as inhibition of biofilm formation incubated for 24 hrs by crystal violet staining based microplate reader assay. It is filed as functional.
For assay [6], the system named is Staphylococcus aureus. The assay can be described thus: Antibiofilm activity against methicillin-susceptible Staphylococcus aureus ATCC 6538 assessed as biofilm eradication incubated for 24 hrs by crystal violet staining based microplate reader assay. The format is functional.
The subject of assay [7] is SiHa. The assay can be described thus: Antiproliferative activity against human SiHa cells assessed as inhibition of cell growth incubated for 72 hrs by MTT assay. The format is functional, cell-based. (Tetrazolium assays rely on reduction of a dye to a coloured formazan, in cell work by metabolically active cells.)
Assay [8] has as its system Staphylococcus aureus. The assay can be described thus: Antibiofilm activity against methicillin-resistant Staphylococcus aureus ATCC 33592 assessed as inhibition of biofilm formation incubated for 24 hrs by crystal violet staining based microplate reader assay. It is filed as functional.
Assay [9] deals with COLO 320. The assay can be described thus: Antiproliferative activity against human COLO 320 cells assessed as inhibition of cell growth incubated for 72 hrs by MTT assay. The format is functional, cell-based. The conditions noted are these: COLO 320, 72 h.
Assay [10] concerns HeLa. The assay can be described thus: Antiproliferative activity against human HeLa cells assessed as inhibition of cell growth incubated for 72 hrs by MTT assay. It is filed as functional, cell-based.
In assay [11] the test system is COLO 205. Kind of assay: Antiproliferative activity against human COLO 205 cells assessed as inhibition of cell growth incubated for 72 hrs by MTT assay. The format is functional, cell-based. The conditions noted are these: COLO 205, 72 h.
In assay [12] the test system is Staphylococcus aureus. The assay can be described thus: Antibiofilm activity against methicillin-resistant Staphylococcus aureus ATCC 33592 assessed as biofilm eradication incubated for 24 hrs by crystal violet staining based microplate reader assay. The format is functional.

As to `C=Cc1c(C)c(O)cc2c1CCc1c-2ccc(O)c1C`, the MIC (commonly the lowest concentration found to suppress growth) in assay [1] was greater than 481 µM; in [2] it was 481 µM (≈ 128 µg/mL); in assay [3], 481 µM (≈ 128 µg/mL); in assay [4], greater than 481 µM.

Turning to `C=Cc1c(C)c(O)cc2c1ccc1c(C)c(O)ccc12`, the MBIC in assay [5] was 15.1 µM. Also, the minimum inhibitory concentration (MIC) in [1] is greater than 484 µM; in assay [2], 15.1 µM (≈ 3.99 µg/mL); in assay [3] it was 15.1 µM (≈ 3.99 µg/mL); in [4] it was greater than 484 µM. In addition, the MBEC in [6] was greater than 484 µM.

Turning to `CC(=O)c1c(C)c(O)cc2c1ccc1c(C)c(O)ccc12`, the minimum inhibitory concentration (MIC) is greater than 457 µM in [1], 457 µM (≈ 128 µg/mL) in [2], 457 µM (≈ 128 µg/mL) in assay [3] and greater than 457 µM in assay [4].

As for `C#Cc1c(C)c(O)cc2c1CCc1c-2ccc(O)c1C`, in assay [7], the IC50 (as a rule, the midpoint of a concentration-inhibition curve) was 25.3 µM. Further, the minimum inhibitory concentration (MIC) in assay [1] was greater than 485 µM; in [2], 121 µM (≈ 32.1 µg/mL); in assay [3], 121 µM (≈ 32.1 µg/mL); in [4] it was greater than 485 µM.

As to `C=Cc1c(C)c(O)c(-c2cc3c(c(C)c2O)CCc2c(C=O)c(C)cc(O)c2-3)c2c1ccc1c(C)c(O)ccc12`, the minimal inhibitory concentration (MIC) in assay [1] is greater than 121 µM; in assay [2], 121 µM (≈ 64.2 µg/mL); in assay [3], 60.5 µM (≈ 32.1 µg/mL); in [4], greater than 121 µM.

For `C=Cc1c(C)c(O)cc2c1ccc1c(C)c(Oc3c(O)c(C)c(C=C)c4ccc5c(C)c(O)ccc5c34)ccc12`, the minimal inhibitory concentration (MIC) was greater than 243 µM in assay [1], 122 µM (≈ 64 µg/mL) in assay [2], 122 µM (≈ 64 µg/mL) in [3] and greater than 243 µM in assay [4].

For the compound `C=Cc1c(COC)c(O)cc2c1CCc1c-2ccc(O)c1C`, the MIC in assay [1] is greater than 413 µM; in assay [2], 413 µM (≈ 122 µg/mL); in [3], 413 µM (≈ 122 µg/mL); in [4], greater than 413 µM.

Turning to `C=Cc1c(C)c(O)cc2c1CCc1c-2cc(-c2cc3c(c(C)c2O)CCc2c-3cc(O)c(C)c2C=C)c(O)c1C`, the figures for the MBIC in assay [5] and in assay [8] were 121 µM and 242 µM, respectively. Moreover, the MIC in [1] was greater than 121 µM; in [2], 60.5 µM (≈ 32.1 µg/mL); in assay [3], 60.5 µM (≈ 32.1 µg/mL); in assay [4], greater than 121 µM.

With `C#Cc1c(CO)c(O)cc2c1CCc1c-2ccc(O)c1C`, the MBIC in assay [5] came out at 114.3 µM. The concentration for half-maximal inhibition (IC50) in [9], in [10] and in assay [11] was 12.3 µM each time. In addition, the MIC in assay [1] is greater than 457 µM; in assay [2], 57.1 µM (≈ 16 µg/mL); in assay [3], 57.1 µM (≈ 16 µg/mL); in assay [4], greater than 457 µM.

In the case of `C=Cc1c(C)cc(O)c2c1CCc1c-2ccc(O)c1C`, the MBIC in [5] and in assay [8] was 60 µM in each case. Moreover, the concentration for half-maximal inhibition (IC50) in assay [9], in [10] and in [11] was 12.3 µM throughout. Moreover, the MIC in assay [1] is greater than 480 µM; in [2], 30 µM (≈ 7.99 µg/mL); in assay [3] it was 30 µM (≈ 7.99 µg/mL); in assay [4] it was greater than 480 µM.

As to `C=Cc1c(COC)c(O)cc2c1ccc1c(C)c(O)ccc12`, the minimum inhibitory concentration (MIC) was greater than 435 µM in assay [1], 218 µM (≈ 64 µg/mL) in assay [2], 218 µM (≈ 64 µg/mL) in assay [3] and greater than 435 µM in assay [4].

Take `C=CC1=C(C)C(=O)C=C2c3ccc(O)c(C)c3CC[C@@]21O`: the MBIC in assay [5] worked out at 113.5 µM. Moreover, the MIC in assay [1] is greater than 454 µM; in assay [2], 56.8 µM (≈ 16 µg/mL); in [3], 56.8 µM (≈ 16 µg/mL); in [4], greater than 454 µM.

`C#Cc1c(C)c(O)cc2c1ccc1c(C)c(O)ccc12`: the MBIC in [5] stood at 15.3 µM. For the same compound, the MIC in [1] is greater than 488 µM; in [2], 15.3 µM (≈ 4.01 µg/mL); in assay [3], 15.3 µM (≈ 4.01 µg/mL); in [4], greater than 488 µM. Besides, the MBEC in [6] is greater than 488 µM.

For the compound `C=Cc1c(CO)c(O)cc2c1ccc1c(C)c(O)ccc12`, in assay [5], the MBIC was 114.3 µM. In addition, the minimal inhibitory concentration (MIC) was greater than 229 µM in assay [1], 114 µM (≈ 32 µg/mL) in [2], 114 µM (≈ 32 µg/mL) in assay [3] and greater than 229 µM in assay [4].

As for `C=Cc1c(C)cc(O)c2c1CCc1c-2cc(-c2c(O)c(C)c(C=C)c3ccc4c(C)c(O)ccc4c23)c(O)c1C`, the MBIC in [5] and in [8] was 60.5 µM in each case. Besides, the IC50 in assay [9], in [10] and in assay [11] was 12.3 µM in each case. Also, the MIC in assay [1] is greater than 242 µM; in [2], 60.5 µM (≈ 32 µg/mL); in assay [3] it was 60.5 µM (≈ 32 µg/mL); in assay [4], greater than 242 µM.

Turning to `C=Cc1c(C)c(O)cc2c3c(ccc12)C(C)(O)C(=O)C=C3` (stereo not drawn), the MIC in assay [1] is greater than 458 µM; in assay [2], 229 µM (≈ 64.2 µg/mL); in assay [3], 229 µM (≈ 64.2 µg/mL); in [4], greater than 458 µM.

For `C#Cc1c(CO)c(O)cc2c1ccc1c(C)c(O)ccc12`, the MBIC in [5] was 115 µM; in assay [8], 114.3 µM. Further, the minimum inhibitory concentration (MIC) in [1] was greater than 230 µM; in [2], 115 µM (≈ 32 µg/mL); in assay [3], 57.5 µM (≈ 16 µg/mL); in [4] it was greater than 230 µM.

For `C=Cc1c(CO)cc(O)c2c1CCc1c-2ccc(O)c1C`, the MBIC in assay [5] and in [8] was 227 µM each time. Moreover, the IC50 in [9], in [10] and in assay [11] was 12.3 µM in each case. Besides, the MIC is greater than 454 µM in assay [1], 114 µM (≈ 32 µg/mL) in [2], 114 µM (≈ 32 µg/mL) in assay [3] and greater than 454 µM in [4].

Turning to `C=Cc1c(C)c(Oc2c(O)c(C)c(C=C)c3ccc4c(C)c(O)ccc4c23)cc2c1ccc1c(C)c(O)ccc12`, the MBIC in assay [5] was determined as 121 µM. Moreover, the MIC in assay [1] was greater than 121 µM; in [2] it was 60.5 µM (≈ 31.9 µg/mL); in assay [3] it was 60.5 µM (≈ 31.9 µg/mL); in [4], greater than 121 µM.

For `O=C(O)c1cn(C2CC2)c2cc(N3CCNCC3)c(F)cc2c1=O` [CIPROFLOXACIN], in [5], the MBIC was 0.75 µM. The minimal inhibitory concentration (MIC) in [1], in assay [2] and in assay [3] was 0.37 µM (≈ 0.123 µg/mL) each time. Further, the MBEC in assay [6] is greater than 386.7 µM.

`CN[C@H](CC(C)C)C(=O)N[C@H]1C(=O)N[C@@H](CC(N)=O)C(=O)N[C@H]2C(=O)N[C@H]3C(=O)N[C@H](C(=O)N[C@H](C(=O)O)c4cc(O)cc(O)c4-c4cc3ccc4O)[C@H](O)c3ccc(c(Cl)c3)Oc3cc2cc(c3O[C@@H]2O[C@H](CO)[C@@H](O)[C@H](O)[C@H]2O[C@H]2C[C@](C)(N)[C@H](O)[C@H](C)O2)Oc2ccc(cc2Cl)[C@H]1O` [VANCOMYCIN]: the minimal inhibitory concentration (MIC) stood at 1770 µM (≈ 2560 µg/mL) in assay [1], 1.38 µM (≈ 2 µg/mL) in assay [2] and 177 µM (≈ 256 µg/mL) in assay [4]. The MBEC in assay [12] and in [6] was greater than 88.3 µM each time. In addition, the MBIC in assay [8] was 1.38 µM.

Source of the values: ChEMBL document CHEMBL5584310, “Phenanthrenes from Juncus articulatus with Antibacterial and Biofilm Formation Inhibitory Activity” (J Nat Prod, 2024).
